Values of other authors, collected in patent publication US20150217002A1, “NEAR-INFRARED SPECTROSCOPY AND OPTICAL REPORTER” (THE RESEARCH FOUNDATION FOR THE STATE UNIVERSITY OF NEW YORK, priority 2012, published 2015).

Tests used:
[1] = removed from the circulation system by the liver
[2] = in blood excited with 800 nm light, 0.08 mg/L

in vivo half-life [1]: about 3 minutes
quantum yield [2]: about 0.013
Compound: CC1(C)C(/C=C/C=C/C=C/C=C2\N(CCCCS(=O)(=O)O)c3ccc4ccccc4c3C2(C)C)=[N+](CCCCS(=O)(=O)[O-])c2ccc3ccccc3c21 [ICG, indocyanine green]
